Measured values as given in PubChem BioAssay AID488803 (Sanford-Burnham Center for Chemical Genomics, 2010).
Calls of active or inactive are those of the source.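 Rule for the calls: active = mean IC50 below 10 µM; inactive = the rest.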

Target: Apelin receptor (Homo sapiens) (UniProt P35414)
Test: apelin receptor inhibitor analogs – cell-based, luminescence, set 2, SAR follow-up (AID 488803)
Conditions: CHO-K1 APJ PathHunter beta-arrestin, antagonist

Sequence of Apelin receptor (Homo sapiens) (P35414 whole entry, looked up): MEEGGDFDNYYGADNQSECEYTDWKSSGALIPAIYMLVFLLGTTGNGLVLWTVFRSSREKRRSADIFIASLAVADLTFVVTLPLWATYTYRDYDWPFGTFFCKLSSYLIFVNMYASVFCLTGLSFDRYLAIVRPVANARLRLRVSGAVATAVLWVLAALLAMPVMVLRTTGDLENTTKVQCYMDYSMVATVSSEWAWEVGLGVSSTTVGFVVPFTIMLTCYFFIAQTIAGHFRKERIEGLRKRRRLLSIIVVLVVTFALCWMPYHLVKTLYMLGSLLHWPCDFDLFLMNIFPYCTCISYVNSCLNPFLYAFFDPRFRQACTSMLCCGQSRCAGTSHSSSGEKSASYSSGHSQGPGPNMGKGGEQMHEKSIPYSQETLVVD

IC50 | SMILES
> 79 µM (inactive) | CC(C)(C)c1ccc(C(=O)Oc2coc(CSc3ncccn3)cc2=O)cc1
> 79 µM (inactive) | Cc1c(O)ccc2c1OC1(CC2c2ccccc2Cl)CC(C)(C)NC(=O)N1 (stereo not drawn)

SMILES | IC50
O=c1cc(CCl)occ1O | > 79 µM (inactive)
